What all share (assay type): cell-based
Assay [1] deals with A-549 (monolayer culture of a human macrocytic lung carcinoma). The experiment in a line: In vitro antitumor activity, A-549 cell growth (Crystal Violet). As to conditions: A-549 cells, three days of incubation at 37° C., Crystal Violet staining. On the procedure: (§1) The antitumor activities of IB-97224 and IB-97225 have been determined in vitro in cell cultures of mouse leukemia P-388D1, human lung carcinoma A-549, human colon carcinoma HT-29 and human melanoma SK-MEL-28. The procedure was carried out using the methodology described by Bergeron, et al. (1984), and by Schroeder, et al. (1981).
(§2) Biological activity: The antitumor cells employed have been P-388D1 (suspension culture of a lymphoid neoplasm from DBA/2 mouse), A-549 (monolayer culture of a human macrocytic lung carcinoma), HT-29 (monolayer culture of a human colon carcinoma), and SK-MEL-28 (monolayer culture of a human melanoma). P-388D1 cells were seeded into 16 mm wells at 1×10^4 cells per well in 1 ml aliquots of MEM 5FCS containing the indicated concentration of drug. A separate set of cultures without drug was seeded as control of growth to ensure that cells remained in exponential phase of growth. All determinations were carried out duplicated. After three days of incubation at 37° C. in 10% CO2 atmosphere with 98% humidity, the IC50 was calculated by comparing the growth in wells with drug with the growth in control wells without the drug. […] The IC50 was calculated by comparing the growth in wells with drug with the growth in control wells without the drug.

Assay [2] has as its system HT-29 (monolayer culture of a human colon carcinoma). The experiment in a line: In vitro antitumor activity, HT-29 cell growth (Crystal Violet). The following applies: HT-29 cells, three days of incubation at 37° C., Crystal Violet staining. On the procedure:
as §1, §2

The subject of assay [3] is SK-MEL-28 (monolayer culture of a human melanoma). The experiment in a line: In vitro antitumor activity, SK-MEL-28 cell growth (Crystal Violet). As to conditions: SK-MEL-28 cells, three days of incubation at 37° C., Crystal Violet staining. On the procedure: as §1, §2
Assay [4] relates to P-388D1 (suspension culture of a lymphoid neoplasm from DBA/2 mouse). The experiment in a line: In vitro antitumor activity, P-388D1 cell growth. As to conditions: P388D1 cells, three days of incubation at 37° C., growth vs control wells without drug. On the procedure:
as §1, §2

For the compound `CN[C@H]1[C@H](O)[C@@H]2O[C@](C)([C@H]1OC)n1c3ccccc3c3c4c(c5c6ccccc6n2c5c31)C(=O)NC4` [IB-97225, 5′-hydroxystaurosporine], the IC50 (commonly the concentration that inhibits the measured activity by half) came to 2 nM in assay [1], 4 nM in assay [2], 2 nM in assay [3] and 20 nM in assay [4].
Consider `CO[C@H]1[C@@H](N(C)C)[C@H](O)C2OC1(C)n1c3ccccc3c3c4c(c5c6ccccc6n2c5c31)C(=O)NC4` (some centres unmarked) [IB-97224, 4′N-methyl-5′-hydroxystaurosporine], for which the IC50 in assay [1] was 2 nM; in assay [2], 4 nM; in assay [3], 4 nM; in assay [4], 40 nM.

The record behind these values is US6852715B1, “Indolocarbazole alkaloids from a marine actinomycete” (Instituto Biomar S.A., priority 1909, dated 2005).
